Results published in US20210154119A1, “ASMT EXPRESSION PROMOTER” (Shiseido Company, Ltd., priority 2018, published 2021).

System: ASMT gene
Assay: ASMT gene expression level in epidermal keratinocytes by quantitative PCR
Format: cell-based
Method: Commercially available normal adult skin-derived keratinocytes (Kurabo) were inoculated into a T75 flask at 5×10^5 cells/flask, and were cultured in a keratinocyte medium (Humedia-KG2, Kurabo) at 37° C. in a 5% CO2 atmosphere until they reached semiconfluency. The resulting cells were used as seed cells. The keratinocytes were collected by trypsinization, and inoculated into a 24-well plate at 2×10^4 cells/well, and cultured in a keratinocyte medium (Humedia-KG2, Kurabo) at 37° C., 5% CO2 atmosphere until they reached confluency.
To the epidermal keratinocytes having reached confluency was added the ectoin sample at an appropriate dilution ratio so that the ectoin concentration in the medium was 1 mM, followed by the continuation of the culture at 37° C. in a 5% CO2 atmosphere. As a control, a medium not containing the ectoin sample was used to carry out the culture.
Ten hours after the addition of ectoin, the medium was removed. Then the cells were lysed and RNA was extracted therefrom using a commercially available RNA extraction reagent (RNeasy Mini Kit, Qiagen).
Using the thus extracted RNA as a template, quantitative PCR was performed with a commercially available quantitative PCR reagent (BrilliantII QRT-PCR kit, Agilent) and a quantitative PCR device (Mx-3005P, Agilent), by which the expression level of the ASMT gene was determined. At the same time, the expression level of the RPLP0 gene whose expression level was almost constant was also determined as an internal standard. Commercially available PCR primer set (Takara Bio Inc.) specific to each gene was used.
To the epidermal keratinocytes cultured in the same manner as in Example 1 was added the ectoin sample at appropriate dilution ratios so that the ectoin concentration in the medium was 0.005 wt %, 0.01 wt %, 0.02 wt %, 0.05 wt %, 0.1 wt %, followed by the continuation of the culture at 37° C. in a 5% CO2 atmosphere.
To the epidermal keratinocytes cultured in the same manner as in Example 1 was added the respective samples at appropriate dilution ratios so that the concentration in the medium was respectively 1 mM (ectoine), 100 μM (glycosyl hesperidin), 0.1% (green tea extract), and 0.1% (oolong tea extract). These concentrations are all normal concentrations to be used in external formulations. After the addition of the samples, the cells were cultured, from which the ASMT expression level was evaluated in the same manner as in Example 1. As a control, a medium not containing any sample was used to carry out the culture.

## CC1=N[C@H](C(=O)O)CCN1 [ectoin, (4S)-2-methyl-1,4,5,6-tetrahydropyrimidine-4-carboxylic acid]
Ectoin 1 mM in medium, 10 hours, normal adult skin-derived keratinocytes, versus medium containing no ectoin (FIG. 1)
  ASMT gene expression level relative to control (control set to 1): very high ASMT expression promoting action
Ectoin 0.005-0.1 wt % in medium, 10 hours, keratinocytes (FIG. 2)
  Concentration-dependency of ASMT expression promoting action: dependent on the concentration thereof
Ectoine 1 mM versus glycosyl hesperidin 100 μM, green tea extract 0.1%, oolong tea extract 0.1%, keratinocytes (FIG. 3)
  ASMT gene expression level (ASMT/RPLP0) in comparison with various antioxidants: higher than that of green tea extract, oolong tea extract, and glycosyl hesperidin
Ectoine 0.02 wt % in medium, 10 hours, keratinocytes, compared with 0.005 wt % and 0.01 wt % (FIG. 2)
  ASMT gene expression level (ASMT/RPLP0): higher than the cases of lower concentrations of ectoine (0.005 wt %, 0.01 wt %)
